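A five-concentration, 48-hour dose response in 96-well plates underlies each endpoint, interpolated linearly between surrounding concentrations. GI50 marks 50% less growth. TGI denotes the concentration required for complete inhibition of growth.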
Tests used:
Test in all cases: DTP human tumour cell line panel, 48 h
[1] = test system: HCT-116 colon
[2] = test system: HOP-92 NSCLC
[3] = test system: HT29 colon
[4] = test system: NCI-H23 lung
[5] = test system: NCI-H522 lung
[6] = test system: OVCAR-4 ovarian
[7] = test system: SF-268 CNS
[8] = test system: SF-539 CNS
[9] = test system: SK-MEL-28 melanoma
[10] = test system: SN12C renal
[11] = test system: TK-10 renal
[12] = test system: UACC-62 melanoma
[13] = test system: MCF7 breast
[14] = test system: MDA-MB-231 breast
[15] = test system: PC-3 prostate
[16] = test system: A498 renal
[17] = test system: BT-549 breast
[18] = test system: EKVX NSCLC

Structure (SMILES) | TGI [1] [µM] | TGI [2] [µM] | TGI [3] [µM] | TGI [4] [µM] | TGI [5] [µM] | TGI [6] [µM] | TGI [7] [µM] | TGI [8] [µM] | TGI [9] [µM] | TGI [10] [µM] | TGI [11] [µM] | TGI [12] [µM] | TGI [13] [µM] | TGI [14] [µM] | TGI [15] [µM] | TGI [16] [µM] | TGI [17] [µM] | TGI [18] [µM] | GI50 [3] [µM]
CC(=O)N(O)Cc1ccccc1 | > 100 | > 100 | > 100 | > 100 | > 100 | > 100 | > 100 | > 100 | > 100 | > 100 | > 100 | > 100 | – | – | – | – | – | – | –
CCn1c(=O)c2nc(SC)sc2n(-c2ccccc2)c1=O | > 100 | > 100 | > 100 | > 100 | > 100 | > 100 | > 100 | > 100 | > 100 | > 100 | > 100 | – | > 100 | > 100 | > 100 | – | – | – | –
NC(=Nc1cccc(Cl)c1)c1ccccc1N | > 100 | – | > 100 | > 100 | > 100 | > 100 | > 100 | – | > 100 | – | > 100 | > 100 | > 100 | > 100 | > 100 | > 100 | > 100 | > 100 | –
CCn1c2ccccc2c2ccc(C3C(C(=O)OC)=C(C)NC(C)=C3C(=O)OC)cc21 | > 100 | – | > 100 | > 100 | – | > 100 | > 100 | > 100 | > 100 | > 100 | > 100 | > 100 | > 100 | > 100 | – | 46 | > 100 | > 100 | –
CN1C(=O)CC2CCC(=O)N2c2cccnc21 (stereo not drawn) | > 100 | – | > 100 | > 100 | > 100 | > 100 | > 100 | > 100 | > 100 | > 100 | > 100 | > 100 | > 100 | > 100 | – | – | > 100 | > 100 | –
C#CC1(O)CCC2[C@@H]3CCc4cc(Oc5nc(F)nc(-c6c7ccccc7cn6C)n5)ccc4C3CC[C@@]21C (stereo partly drawn) | > 100 | > 100 | > 100 | > 100 | > 100 | > 100 | > 100 | > 100 | > 100 | > 100 | > 100 | > 100 | – | – | – | > 100 | – | > 100 | –
CN(C)c1cccc2c1C(=O)C=CC21CCc2ccc(N(C)C)c3c(N(C)C)ccc1c23 (stereo not drawn) | 22.9 | 41.8 | 27 | 37.4 | – | 83.4 | 33.8 | 35.4 | 30.4 | 26.5 | 28.1 | 26.9 | 27.3 | 31.2 | 27.4 | 15.3 | – | 63.1 | –
OC12c3ccccc3C3CCC4(OCCO4)C3C1c1ccccc12 (stereo not drawn) | > 100 | – | > 100 | > 100 | > 100 | > 100 | > 100 | > 100 | > 100 | > 100 | > 100 | > 100 | – | – | – | > 100 | – | > 100 | –
O=S(=O)(O)c1ccc2c(N=Nc3ccc(Cl)cc3)c(O)ccc2c1 | > 100 | > 100 | > 100 | > 100 | > 100 | > 100 | > 100 | – | > 100 | > 100 | > 100 | > 100 | – | > 100 | > 100 | > 100 | > 100 | > 100 | –
CCOC(=O)C1([Se]c2ccccc2)CCCC1=O (stereo not drawn) | 30.9 | 54.5 | > 100 | 33.4 | 15.5 | 36.8 | 27.4 | 43.6 | 41.9 | 30.5 | > 100 | 35.2 | – | – | – | > 100 | – | 86.8 | –
Cc1ccc2[nH]c3[nH]c(=S)[nH]c(=O)c3c2c1 | > 100 | > 100 | > 100 | > 100 | > 100 | – | > 100 | > 100 | – | > 100 | > 100 | > 100 | > 100 | > 100 | – | > 100 | > 100 | > 100 | –
O=C1CSC2=NC3=C(CSC/C3=C\c3ccccc3)C(c3ccccc3)N12 (stereo not drawn) | > 100 | > 100 | > 100 | > 100 | – | > 100 | > 100 | > 100 | > 100 | > 100 | > 100 | > 100 | > 100 | > 100 | > 100 | – | – | > 100 | –
O=C1CCCCC/C1=C\c1ccccc1 | > 100 | > 100 | > 100 | > 100 | > 100 | > 100 | > 100 | – | > 100 | > 100 | > 100 | > 100 | – | > 100 | > 100 | > 100 | > 100 | > 100 | –
COc1ccc2c(c1)c(=O)c1c(NCCN(C)C)ccc3nnn2c31 | 13.4 | 10.8 | 12.3 | 13.1 | 15.8 | 8.17 | 14.9 | 15.9 | 18.8 | 19.7 | 13.3 | 17.8 | – | – | – | 21.7 | – | 17.9 | –
Cc1c(N2C(=O)/C(=C/c3ccc(N(CCC#N)CCC#N)cc3)N=C2c2ccccc2)c(=O)n(-c2ccccc2)n1C | > 100 | > 100 | > 100 | > 100 | – | > 100 | > 100 | > 100 | > 100 | > 100 | – | > 100 | > 100 | > 100 | – | > 100 | > 100 | > 100 | –
CCCN(CCC)c1c([N+](=O)[O-])cc(C(=O)N(CCO)CCO)cc1[N+](=O)[O-] | > 100 | – | > 100 | > 100 | > 100 | > 100 | > 100 | > 100 | > 100 | > 100 | > 100 | – | – | – | – | – | – | > 100 | –

Structure (SMILES) | TGI [1] [µM] | TGI [2] [µM] | TGI [3] [µM] | TGI [4] [µM] | TGI [5] [µM] | TGI [6] [µM] | TGI [7] [µM] | TGI [8] [µM] | TGI [9] [µM] | TGI [10] [µM] | TGI [11] [µM] | TGI [12] [µM] | TGI [13] [µM] | TGI [14] [µM] | TGI [15] [µM] | TGI [16] [µM] | TGI [17] [µM] | TGI [18] [µM] | GI50 [3] [µM]
CCCC1(CCC)c2cc(/C=N\O)ccc2-c2ccc(-c3ccc(C(C)(C)C)cc3)cc21 | 54.8 | > 100 | > 100 | > 100 | – | > 100 | > 100 | > 100 | 92.6 | 53.5 | > 100 | – | > 100 | 39.7 | > 100 | – | – | > 100 | –
S=C(N1CCN(c2cccc(Cl)c2)CC1)N1CCN(c2cccc(Cl)c2)CC1 | > 100 | – | > 100 | > 100 | > 100 | > 100 | > 100 | – | > 100 | – | > 100 | > 100 | > 100 | 58.8 | > 100 | – | > 100 | > 100 | –
NC(=O)c1c(NC=O)ncn1C1OCC(O)C(O)C1O (stereo not drawn) | > 100 | > 100 | > 100 | > 100 | > 100 | > 100 | > 100 | > 100 | – | > 100 | > 100 | > 100 | – | > 100 | > 100 | – | > 100 | > 100 | –
O=C(OC/C=C1C=C(OC(=O)c2ccccc2)/C(=N/N(C(=O)c2ccccc2)c2ccccc2)O\1)c1ccccc1 | 18.3 | – | 41.5 | – | – | 22.1 | 6.85 | – | – | 22.7 | 21.8 | – | – | – | – | 25.6 | – | – | 19.8
NC1Cc2ccccc2OC1=O (stereo not drawn) | – | – | > 100 | > 100 | > 100 | – | > 100 | > 100 | > 100 | > 100 | > 100 | > 100 | > 100 | > 100 | > 100 | – | > 100 | > 100 | –
O=c1[nH]c(=O)n(C2OC(CO)C(O)C2O)cc1OCC(F)(F)F (stereo not drawn) | > 100 | > 100 | > 100 | > 100 | > 100 | > 100 | > 100 | > 100 | > 100 | > 100 | > 100 | > 100 | – | – | – | > 100 | – | > 100 | –
CCn1c2c(c3ccccc31)C(c1ccccc1)CC1C(=O)N(c3ccccc3)C(=O)C21 (stereo not drawn) | > 100 | 75.7 | – | > 100 | > 100 | > 100 | > 100 | > 100 | > 100 | > 100 | > 100 | > 100 | – | – | – | 30.6 | – | > 100 | –
COc1ccc2[nH]c3c(C)cc([N+](=O)[O-])c(C)c3c2c1 | 58.7 | 80.6 | 83.8 | > 100 | 43 | > 100 | > 100 | > 100 | 92.2 | > 100 | 76.5 | – | – | – | – | 59.6 | – | > 100 | –
CC(CN(C)C)C(=O)c1ccccc1 (stereo not drawn) | > 53 | 6.87 | 41.3 | 68 | 4.32 | > 55.5 | 85 | > 100 | > 56.6 | 33.8 | > 100 | > 57.4 | – | – | – | > 76.5 | – | > 79 | –
CCOC(=O)c1cc(C2CCN(c3ccccc3)C2=O)c(C(=O)/C=C(/C)N)[nH]1 (stereo not drawn) | 27.9 | – | 25.6 | > 100 | 53.1 | > 100 | > 100 | – | > 100 | 63.7 | > 100 | 40.1 | > 100 | > 100 | > 100 | > 100 | > 100 | > 100 | –
COC1CCC(=O)N1CN(C(C)=O)c1ccc(C)cc1 (stereo not drawn) | > 100 | – | > 100 | > 100 | – | > 100 | > 100 | > 100 | > 100 | > 100 | > 100 | > 100 | > 100 | > 100 | > 100 | – | – | – | –
COc1ccc2nc3n(c2c1)C(=O)c1ccccc1-3 | > 100 | > 100 | > 100 | > 100 | > 100 | > 100 | > 100 | > 100 | > 100 | > 100 | > 100 | > 100 | > 100 | – | > 100 | – | – | > 100 | –
CCOC(=O)c1c(N2CCCC2)ncn(C)c1=S | > 100 | > 100 | > 100 | > 100 | > 100 | > 100 | > 100 | > 100 | > 100 | > 100 | > 100 | > 100 | > 100 | > 100 | > 100 | > 100 | – | > 100 | –
CC1(C)OC[C@@H](O)[C@H](Br)CO1 | > 100 | – | > 100 | > 100 | – | > 100 | > 100 | > 100 | > 100 | > 100 | > 100 | > 100 | > 100 | > 100 | > 100 | > 100 | > 100 | > 100 | –
CC1(C)CC(=O)c2c(nc3c(ccc4ccccc43)c2-c2ccc(NC(=O)CCCCC(=O)Nc3ccc(-c4c5c(nc6c4ccc4ccccc46)CC(C)(C)CC5=O)cc3)cc2)C1 | 74.6 | – | 62.3 | – | > 100 | – | > 100 | 46.6 | > 100 | 92.8 | > 100 | – | > 100 | 64.6 | > 100 | – | – | 67.5 | –
O=c1[nH]c(=O)n(C2CC(O)C(CO)O2)cc1C#Cc1ccc(F)cc1 (stereo not drawn) | – | – | > 100 | > 100 | > 100 | > 100 | > 100 | > 100 | > 100 | > 100 | – | > 100 | – | – | – | – | – | > 100 | –
